IC50, Ratio and bioavailability data for 6 compounds are collected here from ChEMBL document CHEMBL5244241, “Pyrimidine: A promising scaffold for optimization to develop the inhibitors of ABC transporters” (Eur J Med Chem, 2020).

The target in data set [1] is T1, ATP-dependent translocase ABCB1 (Homo sapiens, UniProt P08183). Kind of data set: Inhibition of ABCB1 (unknown origin).
Data set [2] addresses T1, ATP-dependent translocase ABCB1. Kind of data set: Inhibition of P-gp (unknown origin) mediated ATP hydrolysis.
A further data set concerns K562/A02. Kind of data set: Reversal of doxorubicin-induced multidrug resistance in human K562/A02 cells assessed as reversal fold of doxorubicin cytotoxicity by MTT assay. Format: functional. Background: Formazan colour is commonly taken as a measure of viable cells.
Data set [3] is described as follows: Oral bioavailability in BALB/c mouse at 50 mg/kg, […] measured upto 24 hrs relative to control. The conditions noted are these: in vivo. It is filed as ADME, organism-based.

A value given as a limit tells only on which side of the number the result lay.

T1 sequence (P08183 whole entry): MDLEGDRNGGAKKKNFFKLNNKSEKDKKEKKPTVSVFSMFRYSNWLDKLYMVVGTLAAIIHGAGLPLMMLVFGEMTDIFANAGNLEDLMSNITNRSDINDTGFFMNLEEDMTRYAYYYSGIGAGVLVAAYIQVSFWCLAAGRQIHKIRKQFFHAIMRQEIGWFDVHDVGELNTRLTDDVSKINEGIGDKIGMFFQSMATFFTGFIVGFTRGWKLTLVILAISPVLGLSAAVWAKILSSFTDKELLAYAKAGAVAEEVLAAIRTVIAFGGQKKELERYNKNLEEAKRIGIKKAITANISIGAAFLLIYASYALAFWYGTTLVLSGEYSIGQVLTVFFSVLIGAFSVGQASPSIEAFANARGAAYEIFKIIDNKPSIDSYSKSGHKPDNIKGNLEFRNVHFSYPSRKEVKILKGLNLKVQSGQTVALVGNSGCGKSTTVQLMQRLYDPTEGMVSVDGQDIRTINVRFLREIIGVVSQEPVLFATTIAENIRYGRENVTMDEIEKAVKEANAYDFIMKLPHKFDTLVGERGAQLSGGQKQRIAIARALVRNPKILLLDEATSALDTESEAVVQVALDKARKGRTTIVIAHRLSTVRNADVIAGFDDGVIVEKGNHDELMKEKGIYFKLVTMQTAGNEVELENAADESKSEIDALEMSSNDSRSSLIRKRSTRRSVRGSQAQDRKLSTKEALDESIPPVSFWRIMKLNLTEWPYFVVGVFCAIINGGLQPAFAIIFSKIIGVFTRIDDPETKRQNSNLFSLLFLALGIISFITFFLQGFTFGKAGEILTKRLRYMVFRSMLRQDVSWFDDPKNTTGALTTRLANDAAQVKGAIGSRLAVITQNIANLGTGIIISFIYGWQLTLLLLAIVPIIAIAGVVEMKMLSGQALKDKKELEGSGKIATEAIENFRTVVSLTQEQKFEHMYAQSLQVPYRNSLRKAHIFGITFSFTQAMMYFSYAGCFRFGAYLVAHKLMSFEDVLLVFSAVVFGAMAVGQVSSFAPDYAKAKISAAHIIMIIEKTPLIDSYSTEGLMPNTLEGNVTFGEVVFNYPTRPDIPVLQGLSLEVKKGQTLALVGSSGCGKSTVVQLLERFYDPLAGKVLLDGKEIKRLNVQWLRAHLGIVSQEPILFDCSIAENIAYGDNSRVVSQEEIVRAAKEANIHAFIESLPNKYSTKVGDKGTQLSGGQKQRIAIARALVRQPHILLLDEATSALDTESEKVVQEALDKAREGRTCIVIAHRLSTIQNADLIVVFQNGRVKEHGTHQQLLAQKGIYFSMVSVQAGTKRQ

For the compound `O=[N+]([O-])c1cc(Nc2nc(-c3ccccc3)nc3ccccc23)ccc1O`, the IC50 (as a rule, the concentration needed to halve the response being measured) in data set [1] is 0.08 µM.
`Nc1ncnc2c1ncn2[C@@H]1O[C@H](COC(=O)c2ccc(S(=O)(=O)F)cc2)[C@@H](O)[C@H]1O` returned an IC50 in data set [2] of 210 µM.
`CCCCCC(CC(C)=O)n1cnc2c(N)ncnc21` (stereo unspecified): the Ratio in the data set on K562/A02 stood at 1.09.
Regarding `CCCCC(CC(C)=O)n1cnc2c(N)ncnc21` (stereo unspecified), the Ratio in the data set on K562/A02 was found to be 1.09.
On to `NC(=O)c1c2n(c3c(N4CCN(CCc5ccc(F)c(F)c5)CC4)ncnc13)CCCC2`, for which, in data set [3], the bioavailability (in general, the share of a dose that reaches the circulation, judged against a reference dose that is usually intravenous) was more than 50%.
Take `CCCCCCCCCCCCCCCCC(=O)CC(CCCCCCCC)n1cnc2c(N)ncnc21` (stereo unspecified): the Ratio in the data set on K562/A02 turned out to be 1.09.
